{"source": "PubChem BioAssay (NCI)", "test_in_all_cases": "NCI-60 cell line screen, 48 h", "key": {"HOP-62 NSCLC": {"tested_on": "HOP-62 NSCLC"}, "KM12 colon": {"tested_on": "KM12 colon"}, "SW-620 colon": {"tested_on": "SW-620 colon"}, "SK-OV-3 ovarian": {"tested_on": "SK-OV-3 ovarian"}, "SF-295 CNS": {"tested_on": "SF-295 CNS"}, "EKVX NSCLC": {"tested_on": "EKVX NSCLC"}, "COLO 205 colon": {"tested_on": "COLO 205 colon"}, "HOP-92 NSCLC": {"tested_on": "HOP-92 NSCLC"}, "IGROV1 ovarian": {"tested_on": "IGROV1 ovarian"}, "HCT-15 colon": {"tested_on": "HCT-15 colon"}, "SF-539 CNS": {"tested_on": "SF-539 CNS"}, "NCI-H23 lung": {"tested_on": "NCI-H23 lung"}, "OVCAR-4 ovarian": {"tested_on": "OVCAR-4 ovarian"}, "MOLT-4 leukemia": {"tested_on": "MOLT-4 leukemia"}, "U251 CNS": {"tested_on": "U251 CNS"}, "UACC-62 melanoma": {"tested_on": "UACC-62 melanoma"}, "CAKI-1 renal": {"tested_on": "CAKI-1 renal"}, "RXF 393 renal": {"tested_on": "RXF 393 renal"}, "SF-268 CNS": {"tested_on": "SF-268 CNS"}, "UO-31 renal": {"tested_on": "UO-31 renal"}, "MCF7 breast": {"tested_on": "MCF7 breast"}, "TK-10 renal": {"tested_on": "TK-10 renal"}, "SNB-19 CNS": {"tested_on": "SNB-19 CNS"}, "OVCAR-8 ovarian": {"tested_on": "OVCAR-8 ovarian"}, "NCI/ADR-RES ovarian": {"tested_on": "NCI/ADR-RES ovarian"}, "MDA-MB-435": {"tested_on": "MDA-MB-435"}, "HCC-2998 colon": {"tested_on": "HCC-2998 colon"}, "M14 melanoma": {"tested_on": "M14 melanoma"}, "HCT-116 colon": {"tested_on": "HCT-116 colon"}, "NCI-H522 lung": {"tested_on": "NCI-H522 lung"}, "MDA-MB-231 breast": {"tested_on": "MDA-MB-231 breast"}, "PC-3 prostate": {"tested_on": "PC-3 prostate"}, "HT29 colon": {"tested_on": "HT29 colon"}, "MDA-N": {"tested_on": "MDA-N"}, "HL-60(TB) leukemia": {"tested_on": "HL-60(TB) leukemia"}, "SK-MEL-28 melanoma": {"tested_on": "SK-MEL-28 melanoma"}, "NCI-H460 lung": {"tested_on": "NCI-H460 lung"}, "OVCAR-5 ovarian": {"tested_on": "OVCAR-5 ovarian"}, "RPMI-8226 leukemia": {"tested_on": "RPMI-8226 leukemia"}, "OVCAR-3 ovarian": {"tested_on": "OVCAR-3 ovarian"}, "CCRF-CEM leukemia": {"tested_on": "CCRF-CEM leukemia"}, "K-562 leukemia": {"tested_on": "K-562 leukemia"}, "SNB-75 CNS": {"tested_on": "SNB-75 CNS"}, "DU-145 prostate": {"tested_on": "DU-145 prostate"}, "SK-MEL-5 melanoma": {"tested_on": "SK-MEL-5 melanoma"}, "A549 NSCLC": {"tested_on": "A549 NSCLC"}, "NCI-H226 lung": {"tested_on": "NCI-H226 lung"}, "LOX IMVI melanoma": {"tested_on": "LOX IMVI melanoma"}, "UACC-257 melanoma": {"tested_on": "UACC-257 melanoma"}, "HS 578T breast": {"tested_on": "HS 578T breast"}, "T-47D breast": {"tested_on": "T-47D breast"}, "ACHN renal": {"tested_on": "ACHN renal"}, "SK-MEL-2 melanoma": {"tested_on": "SK-MEL-2 melanoma"}, "SN12C renal": {"tested_on": "SN12C renal"}, "786-0 renal": {"tested_on": "786-0 renal"}, "A498 renal": {"tested_on": "A498 renal"}, "MALME-3M melanoma": {"tested_on": "MALME-3M melanoma"}}, "note": "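Step 1: Grow cells in 96-well plates. Step 2: Expose to compound for 48 hours at 5 concentrations. Step 3: Interpolate endpoints linearly; if unreached, use highest concentration. TGI: total growth inhibition.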"}
{"smiles": "N/C(=N/N=C/c1cc(Br)cc(Br)c1O)NO", "values": [{"measurement": "TGI", "setting": "HOP-62 NSCLC", "result": 25.9, "unit": "µM"}, {"measurement": "TGI", "setting": "KM12 colon", "result": 51.4, "unit": "µM"}, {"measurement": "TGI", "setting": "SW-620 colon", "result": "> 100", "unit": "µM"}, {"measurement": "TGI", "setting": "SK-OV-3 ovarian", "result": "> 47.6", "unit": "µM"}, {"measurement": "TGI", "setting": "SF-295 CNS", "result": "> 45.9", "unit": "µM"}, {"measurement": "TGI", "setting": "EKVX NSCLC", "result": 75.1, "unit": "µM"}, {"measurement": "TGI", "setting": "COLO 205 colon", "result": 49.8, "unit": "µM"}, {"measurement": "TGI", "setting": "HOP-92 NSCLC", "result": 25.2, "unit": "µM"}, {"measurement": "TGI", "setting": "IGROV1 ovarian", "result": 4.66, "unit": "µM"}, {"measurement": "TGI", "setting": "HCT-15 colon", "result": "> 46.6", "unit": "µM"}, {"measurement": "TGI", "setting": "SF-539 CNS", "result": "> 31.9", "unit": "µM"}, {"measurement": "TGI", "setting": "NCI-H23 lung", "result": "> 80.2", "unit": "µM"}, {"measurement": "TGI", "setting": "OVCAR-4 ovarian", "result": 71.4, "unit": "µM"}, {"measurement": "TGI", "setting": "MOLT-4 leukemia", "result": 5.58, "unit": "µM"}, {"measurement": "TGI", "setting": "U251 CNS", "result": "> 100", "unit": "µM"}, {"measurement": "TGI", "setting": "UACC-62 melanoma", "result": 7.52, "unit": "µM"}, {"measurement": "TGI", "setting": "CAKI-1 renal", "result": 2.54, "unit": "µM"}, {"measurement": "TGI", "setting": "RXF 393 renal", "result": 53.4, "unit": "µM"}, {"measurement": "TGI", "setting": "SF-268 CNS", "result": 8.75, "unit": "µM"}, {"measurement": "TGI", "setting": "UO-31 renal", "result": 8.4, "unit": "µM"}, {"measurement": "TGI", "setting": "MCF7 breast", "result": "> 89.3", "unit": "µM"}, {"measurement": "TGI", "setting": "TK-10 renal", "result": "> 45.6", "unit": "µM"}, {"measurement": "TGI", "setting": "SNB-19 CNS", "result": "> 80.7", "unit": "µM"}, {"measurement": "TGI", "setting": "OVCAR-8 ovarian", "result": "> 25.4", "unit": "µM"}, {"measurement": "TGI", "setting": "NCI/ADR-RES ovarian", "result": 18.9, "unit": "µM"}, {"measurement": "TGI", "setting": "MDA-MB-435", "result": "> 81.2", "unit": "µM"}, {"measurement": "TGI", "setting": "HCC-2998 colon", "result": "> 53.8", "unit": "µM"}, {"measurement": "TGI", "setting": "M14 melanoma", "result": 12.3, "unit": "µM"}, {"measurement": "TGI", "setting": "HCT-116 colon", "result": 44, "unit": "µM"}, {"measurement": "TGI", "setting": "NCI-H522 lung", "result": 88.6, "unit": "µM"}, {"measurement": "TGI", "setting": "MDA-MB-231 breast", "result": 40.6, "unit": "µM"}, {"measurement": "TGI", "setting": "PC-3 prostate", "result": "> 59", "unit": "µM"}, {"measurement": "TGI", "setting": "HT29 colon", "result": "> 100", "unit": "µM"}, {"measurement": "TGI", "setting": "MDA-N", "result": "> 100", "unit": "µM"}, {"measurement": "TGI", "setting": "HL-60(TB) leukemia", "result": 2.31, "unit": "µM"}, {"measurement": "TGI", "setting": "SK-MEL-28 melanoma", "result": "> 100", "unit": "µM"}, {"measurement": "TGI", "setting": "NCI-H460 lung", "result": 27.5, "unit": "µM"}, {"measurement": "TGI", "setting": "OVCAR-5 ovarian", "result": "> 100", "unit": "µM"}, {"measurement": "TGI", "setting": "RPMI-8226 leukemia", "result": 15.7, "unit": "µM"}, {"measurement": "TGI", "setting": "OVCAR-3 ovarian", "result": 13.1, "unit": "µM"}, {"measurement": "TGI", "setting": "CCRF-CEM leukemia", "result": 3.26, "unit": "µM"}, {"measurement": "TGI", "setting": "K-562 leukemia", "result": 21.5, "unit": "µM"}, {"measurement": "TGI", "setting": "SNB-75 CNS", "result": "> 28.3", "unit": "µM"}, {"measurement": "TGI", "setting": "DU-145 prostate", "result": "> 23.8", "unit": "µM"}, {"measurement": "TGI", "setting": "SK-MEL-5 melanoma", "result": 38.5, "unit": "µM"}, {"measurement": "TGI", "setting": "A549 NSCLC", "result": 53.7, "unit": "µM"}, {"measurement": "TGI", "setting": "NCI-H226 lung", "result": 6.54, "unit": "µM"}, {"measurement": "TGI", "setting": "LOX IMVI melanoma", "result": 19.8, "unit": "µM"}, {"measurement": "TGI", "setting": "UACC-257 melanoma", "result": 99.5, "unit": "µM"}, {"measurement": "TGI", "setting": "HS 578T breast", "result": "> 75.3", "unit": "µM"}, {"measurement": "TGI", "setting": "T-47D breast", "result": 11.2, "unit": "µM"}, {"measurement": "TGI", "setting": "ACHN renal", "result": 9.66, "unit": "µM"}, {"measurement": "TGI", "setting": "SK-MEL-2 melanoma", "result": 82.9, "unit": "µM"}, {"measurement": "TGI", "setting": "SN12C renal", "result": 8.8, "unit": "µM"}, {"measurement": "TGI", "setting": "786-0 renal", "result": "> 40.7", "unit": "µM"}, {"measurement": "TGI", "setting": "A498 renal", "result": 16, "unit": "µM"}, {"measurement": "TGI", "setting": "MALME-3M melanoma", "result": 17.1, "unit": "µM"}]}
